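Five concentrations, 48 hours, 96-well plates. GI50: concentration for 50% inhibition of growth. The concentration for full growth arrest is given as TGI.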
system: SN12C renal; assay: growth of human tumour cells (NCI), 48 h

Point of comparison: CCN(CC)c1ccc(/C=C/c2ccc3cc(C)ccc3[n+]2CC)cc1, GI50 0.124 µM. Against it:
- O=C1Nc2c(C(F)(F)F)cccc2[C@]1(c1ccc(O)cc1)c1ccc(OC(F)(F)F)cc1 — 23-fold higher, 2.83 µM
- CS(=O)(=O)c1ccc([C@H]2O[C@@H](CO)C[C@]2(O)c2ccc(S(C)(=O)=O)cc2)cc1 — higher, > 100 µM
- CC(=O)OC[C@]1(C)C=C2C(=O)[C@](C)(O)C3(CC3)C(C)=C2[C@H]1O — 2-fold higher, 0.251 µM
- CC(C)(C)OC(=O)N1CCc2c(sc3ncnc(N/N=C/c4cccc5ccccc45)c23)C1 — 41-fold higher, 5.04 µM

Point of comparison: CC(=O)OC[C@]1(C)C=C2C(=O)[C@](C)(O)C3(CC3)C(C)=C2[C@H]1O, TGI 6.21 µM. Against it:
- O=C1Nc2c(C(F)(F)F)cccc2[C@]1(c1ccc(O)cc1)c1ccc(OC(F)(F)F)cc1 — 2-fold higher, 12.3 µM
- CS(=O)(=O)c1ccc([C@H]2O[C@@H](CO)C[C@]2(O)c2ccc(S(C)(=O)=O)cc2)cc1 — higher, > 100 µM
- C[C@]12CC[C@H]3[C@@H](CC=C4C[C@@H](O)CC[C@@]43C)[C@@H]1CC[C@@H]2N(CCO)CCO — higher, > 100 µM
- CC(C)(C)OC(=O)N1CCc2c(sc3ncnc(N/N=C/c4cccc5ccccc45)c23)C1 — 5.3-fold higher, 32.9 µM
- CC[C@@H]1CN(C)[C@H]2Cc3c([nH]c4ccccc34)C(=O)C[C@H]1C2C(=O)OC (stereo partly drawn) — higher, > 100 µM
- CCN(CC)c1ccc(/C=C/c2ccc3cc(C)ccc3[n+]2CC)cc1 — 5.2-fold lower, 1.2 µM
- Cc1ccc2c(c1)[n+]([O-])c(N)n[n+]2[O-] — higher, > 100 µM
- COc1ccc(/C=C/c2nccc3ccccc23)cc1OC — higher, > 10 µM

system: U251 CNS; assay: growth of human tumour cells (NCI), 48 h

Point of comparison: CCN(CC)c1ccc(/C=C/c2ccc3cc(C)ccc3[n+]2CC)cc1, TGI 14.5 µM. Against it:
- CCC(C)c1c(Cl)nc(Cl)nc1Cl (stereo not drawn) — within 1.5-fold, 15.4 µM
- CC(C)c1nc(CN(C)C(=O)N[C@H](C(=O)N[C@@H](Cc2ccccc2)C[C@H](O)[C@H](Cc2ccccc2)NC(=O)OCc2cncs2)C(C)C)cs1 — 4.9-fold higher, 71.2 µM
- Oc1ccc(CN2CCC(N3CCCCC3)CC2)c2cccnc12 — higher, > 100 µM
- N#Cc1ccc(O)c(C2=NCC(c3cccc(Oc4ccccc4)c3)O2)c1 (stereo not drawn) — higher, > 100 µM
- CC1(C)OC2[C@@H](CNC(=O)NC(=O)NC(=O)CI)O[C@@H](n3cnc4c(NC(=O)Nc5ccccc5)ncnc43)[C@H]2O1 (stereo partly drawn) — within 1.5-fold, 20.4 µM
- COc1cc(C2=C(c3ccccc3)COC2=O)cc(OC)c1OC — higher, > 100 µM
- COc1cc(C2NC(=O)c3ccccc3N2)ccc1OCCCCCOc1c(OC)cc(C2=NOC(c3cc(OC)c(OC)c(OC)c3)C2)cc1OC (stereo not drawn) — higher, > 100 µM
- O=C1Nc2c(C(F)(F)F)cccc2[C@]1(c1ccc(O)cc1)c1ccc(OC(F)(F)F)cc1 — 1.7-fold higher, 24.6 µM
- CS(=O)(=O)c1ccc([C@H]2O[C@@H](CO)C[C@]2(O)c2ccc(S(C)(=O)=O)cc2)cc1 — higher, > 100 µM
- CC(=O)OC[C@]1(C)C=C2C(=O)[C@](C)(O)C3(CC3)C(C)=C2[C@H]1O — 2.4-fold lower, 6.16 µM
- C[C@]12CC[C@H]3[C@@H](CC=C4C[C@@H](O)CC[C@@]43C)[C@@H]1CC[C@@H]2N(CCO)CCO — higher, > 100 µM
- CC(C)(C)OC(=O)N1CCc2c(sc3ncnc(N/N=C/c4cccc5ccccc45)c23)C1 — higher, > 100 µM
- CC[C@@H]1CN(C)[C@H]2Cc3c([nH]c4ccccc34)C(=O)C[C@H]1C2C(=O)OC (stereo partly drawn) — higher, > 100 µM
- Cc1ccc2c(c1)[n+]([O-])c(N)n[n+]2[O-] — higher, > 100 µM
- COc1ccc(/C=C/c2nccc3ccccc23)cc1OC — not separable, > 10 µM

Point of comparison: CC(C)c1nc(CN(C)C(=O)N[C@H](C(=O)N[C@@H](Cc2ccccc2)C[C@H](O)[C@H](Cc2ccccc2)NC(=O)OCc2cncs2)C(C)C)cs1, GI50 24.3 µM. Against it:
- Oc1ccc(CN2CCC(N3CCCCC3)CC2)c2cccnc12 — 4.4-fold lower, 5.57 µM
- N#Cc1ccc(O)c(C2=NCC(c3cccc(Oc4ccccc4)c3)O2)c1 (stereo not drawn) — 48-fold lower, 0.503 µM
- CC1(C)OC2[C@@H](CNC(=O)NC(=O)NC(=O)CI)O[C@@H](n3cnc4c(NC(=O)Nc5ccccc5)ncnc43)[C@H]2O1 (stereo partly drawn) — 2.4-fold lower, 10 µM
- COc1cc(C2=C(c3ccccc3)COC2=O)cc(OC)c1OC — 4.1-fold lower, 5.86 µM
- COc1cc(C2NC(=O)c3ccccc3N2)ccc1OCCCCCOc1c(OC)cc(C2=NOC(c3cc(OC)c(OC)c(OC)c3)C2)cc1OC (stereo not drawn) — within 1.5-fold, 19.6 µM
- O=C1Nc2c(C(F)(F)F)cccc2[C@]1(c1ccc(O)cc1)c1ccc(OC(F)(F)F)cc1 — 2.2-fold lower, 11.1 µM
- CS(=O)(=O)c1ccc([C@H]2O[C@@H](CO)C[C@]2(O)c2ccc(S(C)(=O)=O)cc2)cc1 — higher, > 100 µM
- CC(=O)OC[C@]1(C)C=C2C(=O)[C@](C)(O)C3(CC3)C(C)=C2[C@H]1O — 360-fold lower, 0.068 µM
- CC(C)(C)OC(=O)N1CCc2c(sc3ncnc(N/N=C/c4cccc5ccccc45)c23)C1 — 5.7-fold lower, 4.25 µM
- CCN(CC)c1ccc(/C=C/c2ccc3cc(C)ccc3[n+]2CC)cc1 — 550-fold lower, 0.0441 µM

system: PC-3 prostate; assay: growth of human tumour cells (NCI), 48 h

Point of comparison: O=C1Nc2c(C(F)(F)F)cccc2[C@]1(c1ccc(O)cc1)c1ccc(OC(F)(F)F)cc1, TGI 21.3 µM. Against it:
- CCC(C)c1c(Cl)nc(Cl)nc1Cl (stereo not drawn) — 2.1-fold higher, 44.1 µM
- CC(C)c1nc(CN(C)C(=O)N[C@H](C(=O)N[C@@H](Cc2ccccc2)C[C@H](O)[C@H](Cc2ccccc2)NC(=O)OCc2cncs2)C(C)C)cs1 — 3.7-fold higher, 79.2 µM
- Oc1ccc(CN2CCC(N3CCCCC3)CC2)c2cccnc12 — higher, > 100 µM
- N#Cc1ccc(O)c(C2=NCC(c3cccc(Oc4ccccc4)c3)O2)c1 (stereo not drawn) — 2-fold higher, 41.6 µM
- CC1(C)OC2[C@@H](CNC(=O)NC(=O)NC(=O)CI)O[C@@H](n3cnc4c(NC(=O)Nc5ccccc5)ncnc43)[C@H]2O1 (stereo partly drawn) — within 1.5-fold, 16.6 µM
- COc1cc(C2=C(c3ccccc3)COC2=O)cc(OC)c1OC — higher, > 100 µM
- COc1cc(C2NC(=O)c3ccccc3N2)ccc1OCCCCCOc1c(OC)cc(C2=NOC(c3cc(OC)c(OC)c(OC)c3)C2)cc1OC (stereo not drawn) — higher, > 66.5 µM
- CS(=O)(=O)c1ccc([C@H]2O[C@@H](CO)C[C@]2(O)c2ccc(S(C)(=O)=O)cc2)cc1 — higher, > 100 µM
- CC(=O)OC[C@]1(C)C=C2C(=O)[C@](C)(O)C3(CC3)C(C)=C2[C@H]1O — 17-fold lower, 1.29 µM
- C[C@]12CC[C@H]3[C@@H](CC=C4C[C@@H](O)CC[C@@]43C)[C@@H]1CC[C@@H]2N(CCO)CCO — higher, > 100 µM
- CC(C)(C)OC(=O)N1CCc2c(sc3ncnc(N/N=C/c4cccc5ccccc45)c23)C1 — higher, > 100 µM
- CC[C@@H]1CN(C)[C@H]2Cc3c([nH]c4ccccc34)C(=O)C[C@H]1C2C(=O)OC (stereo partly drawn) — higher, > 100 µM
- CCN(CC)c1ccc(/C=C/c2ccc3cc(C)ccc3[n+]2CC)cc1 — 3.5-fold lower, 6.17 µM
- Cc1ccc2c(c1)[n+]([O-])c(N)n[n+]2[O-] — higher, > 100 µM
- COc1ccc(/C=C/c2nccc3ccccc23)cc1OC — not separable, > 10 µM

Point of comparison: CCN(CC)c1ccc(/C=C/c2ccc3cc(C)ccc3[n+]2CC)cc1, GI50 0.0664 µM. Against it:
- CC(C)c1nc(CN(C)C(=O)N[C@H](C(=O)N[C@@H](Cc2ccccc2)C[C@H](O)[C@H](Cc2ccccc2)NC(=O)OCc2cncs2)C(C)C)cs1 — 310-fold higher, 20.8 µM
- Oc1ccc(CN2CCC(N3CCCCC3)CC2)c2cccnc12 — 110-fold higher, 7.15 µM
- N#Cc1ccc(O)c(C2=NCC(c3cccc(Oc4ccccc4)c3)O2)c1 (stereo not drawn) — 14-fold higher, 0.938 µM
- CC1(C)OC2[C@@H](CNC(=O)NC(=O)NC(=O)CI)O[C@@H](n3cnc4c(NC(=O)Nc5ccccc5)ncnc43)[C@H]2O1 (stereo partly drawn) — 120-fold higher, 8 µM
- COc1cc(C2=C(c3ccccc3)COC2=O)cc(OC)c1OC — 20-fold higher, 1.35 µM
- COc1cc(C2NC(=O)c3ccccc3N2)ccc1OCCCCCOc1c(OC)cc(C2=NOC(c3cc(OC)c(OC)c(OC)c3)C2)cc1OC (stereo not drawn) — 70-fold higher, 4.62 µM
- O=C1Nc2c(C(F)(F)F)cccc2[C@]1(c1ccc(O)cc1)c1ccc(OC(F)(F)F)cc1 — 65-fold higher, 4.31 µM
- CS(=O)(=O)c1ccc([C@H]2O[C@@H](CO)C[C@]2(O)c2ccc(S(C)(=O)=O)cc2)cc1 — higher, > 100 µM
- CC(=O)OC[C@]1(C)C=C2C(=O)[C@](C)(O)C3(CC3)C(C)=C2[C@H]1O — 2-fold higher, 0.135 µM
- CC(C)(C)OC(=O)N1CCc2c(sc3ncnc(N/N=C/c4cccc5ccccc45)c23)C1 — 69-fold higher, 4.59 µM

From PubChem BioAssay (NCI)
